Assay [1] has as its system Panc02.13 cells expressing the YAPS6A mutant. The assay is described as follows: 3D spheroid growth assay, Panc02.13 cells expressing YAPS6A. The class given is cell-based, human. Conditions: YAP activity increased.
Assay [2] deals with Panc02.13 cells expressing vector only (02.13-WT). The assay is described as follows: Kinetic cell growth assay, Panc02.13 cells expressing vector only. Type of assay: cell-based, human. As for the experimental part: (§1) Panc02.13 cells were used to express YAPS6A (or vector controls) under sparse and dense cultures. Expression was confirmed by confocal microscopy (data not shown). Suppression of the Hippo pathway by expression of non-phospho, active form of YAP (YAPS6A) sensitized pancreatic cancer cells to gemcitabine and 5-FU (FIGS. 6 and 7). Apoptosis was measured by immunobloting with cleaved caspases 3/7 or PARP. Blots were also stained with anti-β-actin for loading control. The effect of Hippo pathway suppression on gemcitabine and 5-FU senstitization was maintained in 3D spheroid culture (FIG. 8). The effects of eleven cytotoxic drugs on the growth of Panc02.13 cells expressing vector only or YAPS6A construct grown under low or high densities were determined (Table 1).
(§2) The effect of gemcitabine on pancreatic cancer cell growth was studied using a kinetic cell growth assay. Pancreatic cancer cells were plated on 96-well plates (Essen ImageLock, Essen Instruments, MI, US) at varying densities (2-4×10^3 for low density or 15-20×10^3 for high density experiments). Small molecule inhibitors at different doses were added 24 hours after plating and cell confluence was monitored with Incucyte Live-Cell Imaging System and software (Essen Instruments). Confluence was observed every hour for 48-144h or until the control (DMSO only) samples reached 100% confluence.
as §2, with “Kinetic Cell growth assay. The” for “The”, “(2-4X103” for “(2-4×10^3”, “15-20X103” for “15-20×10^3”, “Incucyte™” for “Incucyte”

In assay [3] the test system is Panc02.13 cells expressing YAPS6A construct. Description: Kinetic cell growth assay, Panc02.13 cells expressing YAPS6A. The class given is cell-based, human. Conditions: for EC50: YAPS6A construct. As for the experimental part: as §1, §2
Cell lines (Panc02.13, Panc10.05 or Miapaca2) were transfected with YAPS6A constructs (Addgene) using Lipofectamine™ (Invitrogen, Carlsbad, Calif.) following the manufacturer's instructions and 48 hour post-transfection selected in 5-10 μg/ml Blasticidin (InvivoGen, San Diego, Calif.). The clones screened for YAPS6A expression by Western blot. Stable cell lines were maintained in complete medium and 5 μg/ml Blasticidin.
as §2, with “Kinetic Cell growth assay. The” for “The”, “(2-4X103” for “(2-4×10^3”, “15-20X103” for “15-20×10^3”, “Incucyte™” for “Incucyte”

Assay [4] relates to Panc02.13 cells. Description: 3D spheroid growth assay, Panc02.13 (GFP/parental) cells. The conditions noted are these: for Efficacy in inhibiting cell growth when the Hippo pathway was not inhibited: Hippo-YAP pathway active; for Inhibition in high density growth conditions: 3D-spheroid screen.
Experimental: Cancer cell lines were seeded at a 5×10^3 cells per well in a 96-well ultra-low adherence plates (Costar) and briefly spun down at 1000 rpm for 5 minutes. After 2 days, cells were treated with small molecule inhibitors at varying concentrations. Growth of spheroids was monitored using live cell imaging every 2-3 hours for 4-7 days in the Incucyte FLR™ system (Essen) or as end point assay using CellTiter-Glo™ luminescent cell viability assay (Promega).
A dose response curve for each inhibitor is calculated based on control (no inhibitor/DMSO) treated wells.
Cancer cell lines were seeded at a 5×10^3 cells per well in a 96-well ultra-low adherence plates (Costar) and briefly spun down at 1000 rpm for 5 minutes. After 2 days, cells were treated with small molecule inhibitors at varying concentrations. Growth of spheroids was monitored using live cell imaging every 2-3 hours for 4-7 days in the Incucyte ZOOM™ system (Essen) or as end point assay using CellTiter-Glo™ luminescent cell viability assay (Promega).
Assay [5] deals with pancreatic cancer cell lines. Description: Kinetic cell growth assay, panel of pancreatic cancer cell lines. The class given is cell-based, human. Conditions: for Dependence of cellular response on cell crowding: seven PDAC cell lines, threshold >100 fold difference in EC50; for Density dependence of efficacy: seven pancreatic cancer cell lines, sparse and dense conditions. Here is the method:
as §2
FIG. 20A illustrates the kinetic cell growth assay to determine the effect of gemcitabine in a panel of pancreatic cancer cell lines. Cells are plated at low crowding conditions (10-25% confluence) and 24 hours later exposed to gemcitabine in a dose-dependent manner. They are imaged every 1-3 hours until control (vehicle) treated cells reach 100% confluence. This assay is not confounded by the fact that the time required for each cell line to reach 100% confluence may be very different (as the cell lines have different doubling times). A dose response effect of gemcitabine on cell growth for 16 pancreatic cancer cell lines is shown in FIGS. 20B, 3, 31A-31C and 28, where the range of previous studies is also shown. […] Similar responses to gemcitabine were found in liver cancer cell lines (Huh7 and FOCUS) and untransformed (HEK293) cell lines (FIGS. 3, 31A-31C).
as §2, with “Kinetic Cell growth assay. The” for “The”, “(2-4X103” for “(2-4×10^3”, “15-20X103” for “15-20×10^3”, “Incucyte™” for “Incucyte”

[6] abbreviates: high density, read-out: High density (EC50, nM) 02.13-WT.
[7] abbreviates: low density, read-out: Low density (EC50, nM) 02.13-WT.
The mark [8] stands for this setting: high density, read-out: High density (EC50, nM) 02.13-YAPS6A.
[9] abbreviates: low density, read-out: Low density (EC50, nM) 02.13-YAPS6A.
Where [10] appears, read: Homo sapiens, high density, read-out: High density (EC50, nM) 02.13-WT.
The mark [11] stands for this setting: Homo sapiens, low density, read-out: Low density (EC50, nM) 02.13-WT.
[12] abbreviates: Homo sapiens, high density, read-out: High density (EC50, nM) 02.13-YAPS6A.
Setting [13] is: Homo sapiens, low density, read-out: Low density (EC50, nM) 02.13-YAPS6A.

Entries after “also recorded” stand apart in the source; their conditions may differ. Like-named read-outs stand apart in the source and are kept apart here. Starred links: 1 amine or outer side, 2 acyl side, 3 side chain; linkers in the order of their positions; H or OH if unused. Positions of bridges follow the written chain, without caps; N, C: chain ends. Non-standard residues stand in square brackets, D forms with d. Residues, ends and D or L forms follow the SMILES beside them. Chains are numbered I, II in the order given. Actinocin(9to1) = Cc1c2oc3c(C)ccc(C(=O)[*:1])c3nc-2c(C(=O)[*:2])c(N)c1=O; NMeV = CN[C@H](C(=O)O)C(C)C; Sar = CNCC(=O)O

Regarding `Cc1ccc(NC(=O)c2ccc(CN3CCN(C)CC3)cc2)cc1Nc1nccc(-c2cccnc2)n1` [imatinib], in assay [1], the “Efficacy in inhibiting cell growth when the Hippo pathway was inhibited” value (“Efficacy … when the Hippo pathway was inhibited” for short) is given as “increased efficacy in inhibiting cell growth”.

In general, EC50 refers to the concentration at which the effect is half-maximal. On to Epothilone, for which the EC50 in assay [2] (setting [6]) is 20 nM; in assay [2] (setting [7]), less than 1 nM; in assay [3] (setting [8]), 767 nM; in assay [3] (setting [9]), less than 1 nM.

Regarding `O=c1[nH]cc(F)c(=O)[nH]1` [5-FU, 5-fluorouracil], the concentration for a half-maximal effect (EC50) in assay [2] (setting [10]) is greater than 10000 nM; in assay [2] (setting [11]), 350 nM; in assay [3] (setting [12]), 3000 nM. Further, the “Sensitization by expression of YAPS6A” value in assay [3] (suppression of the Hippo pathway, high cell density) was “sensitized”. For the same compound, the “Efficacy … when the Hippo pathway was inhibited” value in assay [1] is on record as “increased efficacy in inhibiting cell growth”.

Regarding `CO[C@H]1C[C@@H]2CC[C@@H](C)[C@@](O)(O2)C(=O)C(=O)N2CCCC[C@H]2C(=O)O[C@H]([C@H](C)C[C@@H]2CC[C@@H](OCCO)[C@H](OC)C2)CC(=O)[C@H](C)/C=C(\C)[C@@H](O)[C@@H](OC)C(=O)[C@H](C)C[C@H](C)/C=C/C=C/C=C/1C` [Everolimus], the “Efficacy in inhibiting cell growth when the Hippo pathway was not inhibited” value in assay [4] is listed as “demonstrated efficacy at higher doses”.

Turning to `C1CN1c1nc(N2CC2)nc(N2CC2)n1` [triethylenemelamine], the “Efficacy in inhibiting cell growth when the Hippo pathway was not inhibited” value in assay [4] is “demonstrated efficacy at higher doses”.

Turning to `Nc1nc(Cl)nc2c1ncn2[C@@H]1O[C@H](CO)[C@@H](O)[C@@H]1F` [clofarabine], in assay [1], the “Efficacy … when the Hippo pathway was inhibited” value was “increased efficacy in inhibiting cell growth”.

On to `COC(=O)C[C@](O)(CCCC(C)(C)O)C(=O)O[C@@H]1C(OC)=C[C@]23CCCN2CCc2cc4c(cc2[C@H]13)OCO4` [omacetaxine mepesuccinate], for which, in assay [4], the “Efficacy in inhibiting cell growth when the Hippo pathway was not inhibited” value was “effective in preventing cancer cell growth independent of the state of Hippo-YAP signaling pathway activity; also recorded: efficacious in inhibiting cell growth”.

With `CC(=O)O[C@H]1C(=O)[C@@]2(C)[C@H]([C@H](OC(=O)c3ccccc3)[C@]3(O)C[C@H](OC(=O)[C@H](O)[C@@H](NC(=O)c4ccccc4)c4ccccc4)C(C)=C1C3(C)C)[C@]1(OC(C)=O)CO[C@@H]1C[C@@H]2O` [Paclitaxel], the EC50 is 1670 nM in assay [2] (setting [10]), 3 nM in assay [2] (setting [11]) and 3 nM in assay [3] (setting [13]). Moreover, the “Dependence of cellular response on cell crowding” value (“Dependence of cellular response” for short) in assay [5] is reported as “weak or no correlation with cell density”. Besides, the “Density dependence of efficacy” value in assay [5] was “largely density independent”.

Consider `CNC(=O)c1ccc(N2C(=S)N(c3ccc(C#N)c(C(F)(F)F)c3)C(=O)C2(C)C)cc1F` [enzalutamide], for which the “Efficacy in inhibiting cell growth when the Hippo pathway was not inhibited” value in assay [4] was “effective in preventing cancer cell growth independent of the state of Hippo-YAP signaling pathway activity; also recorded: efficacious in inhibiting cell growth”.

For `CC(=O)O[C@@]12CO[C@@H]1C[C@H](O)[C@@]1(C)C(=O)[C@H](O)C3=C(C)[C@@H](OC(=O)[C@H](O)[C@@H](NC(=O)OC(C)(C)C)c4ccccc4)C[C@@](O)([C@@H](OC(=O)c4ccccc4)[C@H]21)C3(C)C` [Docetaxel], the EC50 in assay [2] (setting [10]) came to 2400 nM; in assay [2] (setting [11]) it was 3.5 nM; in assay [3] (setting [12]), 4820 nM; in assay [3] (setting [13]) it was 7 nM. The “Dependence of cellular response” value in assay [5] is “weak or no correlation with cell density”. Further, the “Density dependence of efficacy” value in assay [5] is recorded as “largely density independent”.

For the compound `CO[C@@]12[C@H](COC(N)=O)C3=C(C(=O)C(C)=C(N)C3=O)N1C[C@@H]1N[C@@H]12` [mitomycin], in assay [1], the “Efficacy … when the Hippo pathway was inhibited” value is given as “increased efficacy in inhibiting cell growth”.

As to `CCc1c2c(nc3ccc(OC(=O)N4CCC(N5CCCCC5)CC4)cc13)-c1cc3c(c(=O)n1C2)COC(=O)[C@]3(O)CC` [Irrenotecan], the EC50 worked out at 8500 nM in assay [2] (setting [6]), 1070 nM in assay [2] (setting [7]), 1650 nM in assay [3] (setting [8]) and 1700 nM in assay [3] (setting [9]). The “Efficacy … when the Hippo pathway was inhibited” value in assay [1] is on record as “increased efficacy in inhibiting cell growth; also recorded: particularly significant inhibitory activity”.

With `C/C(=C\c1csc(C)n1)[C@@H]1C[C@@H]2O[C@]2(C)CCC[C@H](C)[C@H](O)[C@@H](C)C(=O)C(C)(C)[C@@H](O)CC(=O)N1` [ixabepilone], the “Efficacy … when the Hippo pathway was inhibited” value in assay [1] is listed as “increased efficacy in inhibiting cell growth”.

Turning to `CC(C)C[C@H](NC(=O)[C@H](Cc1ccccc1)NC(=O)c1cnccn1)B(O)O` [bortezomib], in assay [4], the “Efficacy in inhibiting cell growth when the Hippo pathway was not inhibited” value was “effective in preventing cancer cell growth independent of the state of Hippo-YAP signaling pathway activity; also recorded: efficacious in inhibiting cell growth”.

Turning to `CC(C)C[C@H](NC(=O)[C@H](CCc1ccccc1)NC(=O)CN1CCOCC1)C(=O)N[C@@H](Cc1ccccc1)C(=O)N[C@@H](CC(C)C)C(=O)[C@@]1(C)CO1` [carfilzomib], in assay [4], the “Inhibition in high density growth conditions” value is recorded as “significant inhibition” and the “Efficacy in inhibiting cell growth when the Hippo pathway was not inhibited” value is recorded as “effective in preventing cancer cell growth independent of the state of Hippo-YAP signaling pathway activity; also recorded: efficacious in inhibiting cell growth”.

In the case of `S=c1nc[nH]c2nc[nH]c12` [mercaptopurine], the “Efficacy … when the Hippo pathway was inhibited” value in assay [1] was “increased efficacy in inhibiting cell growth”.

`Nc1ccn([C@@H]2O[C@H](CO)[C@@H](O)[C@@H]2O)c(=O)n1` [cytarabine]: the “Efficacy … when the Hippo pathway was inhibited” value in assay [1] is on record as “increased efficacy in inhibiting cell growth”.

As to `Cc1c2oc3c(C)ccc(C(=O)N[C@@H]4C(=O)N[C@H](C(C)C)C(=O)N5CCC[C@H]5C(=O)N(C)CC(=O)N(C)[C@@H](C(C)C)C(=O)O[C@@H]4C)c3nc-2c(C(=O)N[C@@H]2C(=O)N[C@H](C(C)C)C(=O)N3CCC[C@H]3C(=O)N(C)CC(=O)N(C)[C@@H](C(C)C)C(=O)O[C@@H]2C)c(N)c1=O` [dactinomycin] (I: T[dV]P[Sar][NMeV] / II: T[dV]P[Sar][NMeV]; ester I:1-I:C, II:1-II:C; linker I:N-II:N via Actinocin(9to1)), in assay [4], the “Inhibition in high density growth conditions” value is listed as “significant inhibition” and the “Efficacy in inhibiting cell growth when the Hippo pathway was not inhibited” value is on record as “effective in preventing cancer cell growth independent of the state of Hippo-YAP signaling pathway activity; also recorded: efficacious in inhibiting cell growth”.

As for `O=C1[O][Pt]2([NH][C@@H]3CCCC[C@H]3[NH]2)[O]C1=O` [Oxaliplatin], the EC50 in assay [2] (setting [6]) turned out to be 5200 nM; in assay [2] (setting [7]), 937 nM; in assay [3] (setting [8]), 3180 nM; in assay [3] (setting [9]), 5890 nM. The “Dependence of cellular response” value in assay [5] is “weak or no correlation with cell density”. Also, the “Density dependence of efficacy” value in assay [5] is “largely density independent”.

For the compound `CC[C@@]1(O)C(=O)OCc2c1cc1n(c2=O)Cc2cc3ccccc3nc2-1` [Camtothecin, Camptothecin], the EC50 in assay [2] (setting [10]) turned out to be 15 nM; in assay [2] (setting [11]) it was 5.2 nM; in assay [3] (setting [12]), 9 nM; in assay [3] (setting [13]), 6 nM. Further, the “Dependence of cellular response” value in assay [5] is given as “weak or no correlation with cell density”. The “Density dependence of efficacy” value in assay [5] is “density-dependent”. For the same compound, the “Efficacy … when the Hippo pathway was inhibited” value in assay [1] is “increased efficacy in inhibiting cell growth”.

On to `Nc1nc2nc[nH]c2c(=S)[nH]1` [tioguanine], for which the “Efficacy … when the Hippo pathway was inhibited” value in assay [1] is “increased efficacy in inhibiting cell growth”.

The record behind these values is patent US20200216906A1, “METHODS AND COMPOSITIONS RELATING TO THE DIAGNOSIS AND TREATMENT OF CANCER” (PRESIDENT AND FELLOWS OF HARVARD COLLEGE, priority 2015, published 2020).
